Patent US20240271099A1, “METHOD FOR GENERATING HIGHLY FUNCTIONAL HEPATOCYTES BY DIFFERENTIATING HEPATOBLASTS” (INSTITUT NATIONAL DE LA SANTÉ ET DE LA RECHERCHE MÉDICALE, priority 2021, published 2024)

Test system: Glucose-6-Phosphatase activity
Assay: Glycogenolysis (glucose release after glucagon)
Type: cell-based, human
Conditions: 3D spheroids, 10 nmol/L glucagon, 3 h
Description: Glycogen Glucose metabolism. iHeps in 2D and 3D culture were investigated to assess the glycogen storage and glucose homeostasis regulation. Briefly, at specific time points along the 2D and 3D cultures, cells were treated for 3 h with a homemade low-glucose medium with or without 10 nmol/L glucagon (Sigma-Aldrich) to induce glucose release from the glycogen storage. Media samples were then collected and glucose concentration was determined using the High Sensitivity Glucose Assay Kit (Sigma). Periodic acid-Schiff (PAS) staining was then carried out on 2D and 8 μm cryosections of the very same samples. Specimens were fixed for 10 minutes at room temperature with 4% formol then treated with 1% periodic acid solution (Sigma-Aldrich) for 10 minutes. After washing, slides were immersed in Schiff's reagent (Fisher Scientific) for 30 minutes at RT. Before counterstaining with Mayer's Hematoxylin (Sigma), samples were washed carefully with Scott's tap water.
To investigate further, 3D specimens (iHeps and PHHs) were incubated for 4 h with 25 mM D-Glucose and 100 nM insulin to mimic hyperglycemia. Glycogen synthesis and storage were then determined using the Periodic Acid-Schiff (PAS) Staining Kit (Sigma-Aldrich) as described above. […] The media were then collected, and glucose levels determined using the High Sensitivity Glucose Assay Kit (Sigma).

For glucagon, the “glycogenolysis, times higher than basal release (w/o glucagon)” value was 3 times.
